# Assay results from ChEMBL document CHEMBL3507680, “University of Dundee, Gates Library screen for HepG2 cell viability”.
# Test: Human HepG2 cell viability assay in 384 well format
# Format: toxicity, cell-based
# Set-up: dose 125 nL, time 70.5 hour; cytotoxicity at 70.5 h: concentration not given beside the values
# Settings: HepG2 cells, read-out: Inhibition
row,Compound,cytotoxicity at 70.5 h
1,CCC1(CO)CCCN(C(=O)c2cc(COc3cccc(F)c3)[nH]n2)C1 (configuration not stated),-3.53%
2,Cc1ccoc1C(=O)N1CCOCC2(CCN(c3ncccn3)C2)C1 (configuration not stated),-11.7%
3,CC(=O)N1CCN(C(=O)c2ccc3ccn(C)c3c2)CC1,-15.9%
4,CCCC1CCN(C(=O)c2coc(COc3ccc(OC)cc3)n2)C1 (configuration not stated),-3.1%
5,O=C(c1ccccc1F)N1CCC2(CC1)CC(Oc1ccccn1)CO2 (configuration not stated),-4.93%
6,Cc1ccccc1OCCn1cnc2oc(C)c(C(=O)O)c2c1=O,-7.96%
7,CS(=O)(=O)NCC1CCCN(C(=O)c2ccc(F)c(F)c2)C1 (configuration not stated),-1.98%
8,COCC(=O)N1CCN(C(C)c2ncc(-c3ccccc3)o2)CC1 (configuration not stated),-13.2%
9,O=C(O)c1nnn(-c2ccc(F)c(F)c2)c1-c1ccncc1,-8.76%
10,CCN(CC)S(=O)(=O)c1ccc(CNc2cc(C)nc(C)n2)cc1,-12.1%
11,c1ccc2c(Cc3nnc([C@H]4CCN(C5CCOCC5)C4)o3)c[nH]c2c1,-0.535%
12,Cc1cncnc1C1CCN(CCO)CC1,-7.32%
13,O=C(CN1CCN(CCO)CC1)NCCc1c(F)cccc1F,-1.38%
14,CCCC(=O)N(CCCN1CCOCC1)c1nc2c(Cl)cccc2s1,1.41%
15,O=C1CC(c2ccccc2)C2(CCN(Cc3ccncc3)CC2)N1 (configuration not stated),-12.7%
16,O=C(CCc1cccnc1)Nc1ccc(OCC2CCOCC2)cc1,-10.4%
17,COc1ccnc(CN2CCC(O)(c3ccc(C)cn3)CC2)c1OC,-5.69%
18,O=C1c2cnc(N3CCCC3)nc2CN1CCc1ccc(Cl)cc1,-6.15%
19,CCCN1CCN(C(=O)c2cnc(C)nc2)[C@H]2CS(=O)(=O)C[C@H]21,-0.0232%
20,Cc1ccc(S(=O)(=O)NC(C)(C)CN)c(F)c1,-1.04%
21,O=C(NCc1ccccn1)[C@H]1COC[C@H]2CN(C3CCCC3)C[C@H]21,40.2%
22,Cc1noc(C)c1CNC(=O)N1CCN(Cc2cscn2)CC1,-5.24%
23,CN(CC(=O)NCc1ccccn1)CC1CCCN1c1cccnn1 (configuration not stated),0.56%

row,Compound,cytotoxicity at 70.5 h
1,CC(=O)N(C)Cc1ccccc1NCc1c(C)cccc1C,-3.43%
2,CC(c1ccco1)N(C(=O)NCc1ccon1)C1CC1 (configuration not stated),56.7%
3,N[C@@H](Cc1ccccc1)c1nnc(S(=O)(=O)Cc2ccccc2)o1,15.6%
4,COCCN1CCN(S(=O)(=O)C2CC2)Cc2ccc(C)nc21,-5.69%
5,CCN1C(=O)CC[C@]12CC[C@@H](NC(=O)NCc1cccnc1)CC2,-4.88%
6,Cn1nc(Br)c2c(NCCNc3ncccn3)ncnc21,-21.3%
7,N[C@@H]1CC[C@H](C(=O)NCc2ccc3nonc3c2)C1,-13.2%
8,Cc1cc(NC(=O)CO)nn1-c1ccc(Cl)cc1Cl,4.81%
9,COCC(=O)N1CCCC1c1nc(C)c2c(n1)N(CC(C)C)C(=O)CC2 (configuration not stated),-6.03%
10,CN(CCCC1CCCC1)C(=O)c1cc(CN2CCC(O)CC2)on1,10.4%
11,CCC[C@@H]1CN(Cc2nnc(-c3cccnc3)o2)C[C@H]1NC(C)=O,-7.21%
12,CCOC(=O)N1CCC(Oc2ccc(C(F)(F)F)cn2)CC1,-7.88%
13,O=C(CC1CC1)N1Cc2nccn2CC(CN2CCCC2)C1 (configuration not stated),16.9%
14,CN(C)c1nc2sc(C(=O)N3CCNC(=O)CC3)cc2s1,-10.2%
15,CN(Cc1ccco1)[C@@H]1CN(Cc2nccs2)C[C@@H]2CCCO[C@@H]21,-5.05%
16,CN(CC(=O)NCC(O)c1cccc(F)c1)C(=O)OC(C)(C)C (configuration not stated),-3.05%
17,COc1ccccc1C1CNC(=O)c2nc(-c3cnn(C)c3)[nH]c2C1 (configuration not stated),-7.47%
18,CN(C)C(=O)CO[C@H]1COCCN(C2CCOCC2)C1,-4.86%
19,O=C1N(CCCc2ccccc2)CCCC12CCN(C(CO)CO)C2 (configuration not stated),-4.16%
20,Cc1cc(C2CCCN(CC(=O)N3CCCc4ccccc43)C2)n[nH]1 (configuration not stated),-9.66%
21,COC(=O)C(c1cc(F)ccc1F)N(C)C(=O)c1ccccn1 (configuration not stated),-9.53%
22,COc1cccc(C(=O)N(C)C(C)c2c(C)n[nH]c2C)c1OC (configuration not stated),-5.83%
23,O=C(c1cnccn1)N1CCCC2(COCCN(CC3CC3)C2)C1 (configuration not stated),-20.3%

row,Compound,cytotoxicity at 70.5 h
1,CCn1ccc(C(=O)N(C)Cc2cnn(-c3cccc(OC)c3)c2)n1,-11.2%
2,CCC(=O)NS(=O)(=O)c1cccnc1Nc1cccc(Cl)c1Cl,31.6%
3,CCCC(NC(=O)c1ccccn1)c1nnc2ccccn12 (configuration not stated),-12.2%
4,CCCOCCN1CCC2(CC1)CC(=O)N(Cc1cc(F)cc(F)c1)C2,-3.73%
5,CCNC(=O)NC1CCN(c2ccc(S(=O)(=O)CC)cc2)CC1,0.434%
6,COc1ccccc1C1=NOC(CC2(C(=O)NC(C)C)CCOCC2)C1 (configuration not stated),-4.53%
7,CC(C)(O)CN1CCN(C(=O)c2cccn2Cc2ccncc2)CC1,-9.5%
8,CCOCC1CN(S(C)(=O)=O)Cc2nn(C)cc21 (configuration not stated),-3.61%
9,COc1ccc(CCNC(=O)C(C)Nc2cccc(C)c2C)cc1 (configuration not stated),-4.88%
10,CSCc1noc(CN2CCC3(CC2)CC(=O)N(CC(C)C)C3)n1,-2.72%
11,CCc1nc(C)c(-c2nccn2CC2CC(=O)N(CC)C2)[nH]1 (configuration not stated),1.63%
12,O=C(Cc1cccc(F)c1F)NS(=O)(=O)c1ccc(Cl)cc1F,12.1%
13,N#Cc1cccc(N2CCC3(CCC(=O)N(CCCO)C3)CC2)n1,-9.82%
14,Cc1nc(C2(O)CCCNCC2)sc1CCOc1ccc(Cl)cc1 (configuration not stated),31.6%
15,Cc1nc(CN2CCC(O)(c3ccccc3F)CC2)c2ccccn12,11.2%
16,CCN1CCC(NC(=O)CN2CCCCC2Cn2cccn2)CC1 (configuration not stated),-4.33%
17,CN(CCOc1ccccc1F)S(=O)(=O)CC1CCOCC1,-8.77%
18,COCCCNC(=O)CN1CCC(N2CCN(C)C2=O)CC1,-10.4%
19,CN(Cc1ccco1)Cc1ccccc1CNC(=O)c1cc[nH]n1,-6.12%
20,COc1ccc(CC(=O)N2CC[C@@]3(O)CCNC[C@H]3C2)c(OC)c1,-7.58%
21,Cc1noc([C@@]23CCO[C@@H]2CCN(C(=O)CCC(C)C)C3)n1,1.83%
22,Clc1cccc(CNc2cnn(CCN3CCCCC3)c2)c1,-11.9%
23,N#Cc1ccc(CN2CCN(Cc3ccncc3Cl)CC2=O)cc1,2.38%

row,Compound,cytotoxicity at 70.5 h
1,O=C(CN1CCOC(Cn2cncn2)C1)NC(C1CC1)C1CC1 (configuration not stated),9.73%
2,Cn1cc(CN2C[C@@H]3CN(C(=O)c4cccn4C)CCO[C@@H]3C2)cn1,-2.93%
3,c1ccc(CN2CCC(CNc3ncnc4c3CCNCC4)CC2)cc1,0.757%
4,CC(C)c1noc(CCCC(=O)N2CCN(Cc3ccncc3)CC2)n1,-17.6%
5,c1cc(CN2CCO[C@H]3[C@H](OCC4CCCC4)CC[C@@H]32)ccn1,-5.29%
6,CC(C)(C)n1cc(C(=O)N2CCN(Cc3ccsc3)CC2)cn1,-0.132%
7,CCn1ncc(S(=O)(=O)N[C@@H]2CC[C@@H](n3ccnc3C)[C@@H]2O)c1C,-5.15%
8,CCSc1ncc(CN2CCN(c3nc(C)ncc3C)CC2)cn1,-11.5%
9,COCC(=O)N1CCC(Cc2nccnc2-c2c(C)n[nH]c2C)C1 (configuration not stated),12.4%
10,Cc1nc(NC(=O)c2cccnc2N2CCOCC2)sc1C,-13.9%
11,CC(NC(=O)NCCc1ccc(Cl)s1)c1ccccn1 (configuration not stated),-2.15%
12,O=C(NCCC1=CCCCC1)C1CCN(c2ccc3nncn3n2)CC1,3.11%
13,Cn1nc(-c2ccc(F)cc2)cc1C(=O)NCCn1ccnc1,-10.2%
14,N#Cc1ccc(Nc2nc3c(s2)C(=O)CN(CC2CC2)C3)cc1,-4.09%
15,CN1C(=O)CC[C@]12CC[C@@H](NC(=O)NCc1cccnc1)CC2,-4%
16,CCSCC(C)NCc1nn(C)c2ccc(C)cc12 (configuration not stated),-5.67%
17,COCC(=O)N1CCN(Cc2cccnc2)c2ncccc2C1,1.38%
18,CN1CCN(Cc2cccnc2)C2(CCN(c3ncccn3)C2)C1=O (configuration not stated),-5.32%
19,CC(C)(Oc1ccc(F)cc1)C(=O)NCc1ccco1,-2.11%
20,Cc1ccc(CCN2CCC(N(C)Cc3noc(C4CC4)n3)C2)cc1 (configuration not stated),3.87%
21,CC(=O)c1cccc(S(=O)(=O)NCc2cccnc2N(C)C)c1,-6.06%
22,Cc1cnn(CC2CN(Cc3nccn3CC(F)(F)F)CCO2)c1 (configuration not stated),26.3%
23,CCCn1nc2c(cc1=O)CN(CCCN1CCCC1=O)CC2,7.69%

row,Compound,cytotoxicity at 70.5 h
1,CC[C@H]1CN2CC[C@H]1C[C@@H]2CNCc1ccc(OC)cc1,-3.31%
2,CC(=O)NCCNC(=O)c1cnc(-c2ccc(C)cc2C)s1,-6.99%
3,Cc1nc(CN2CC[C@@H](OCC3CC3)[C@@H]2Cc2cccnc2)cs1,-0.893%
4,COc1ccc2c(c1)OCC(CNC(=O)c1cnc(NC(C)C)nc1)C2 (configuration not stated),12.5%
5,CS(=O)(=O)N1CCC(n2nnn(-c3ccccc3)c2=O)CC1,-1.71%
6,COCCN1CCN(Cc2noc(C3CC3)n2)CC1C (configuration not stated),12.5%
7,Cc1cc(-c2cnc(N(C)C)nc2C2CCCCN2C(=O)C2CC2)on1 (configuration not stated),-3.37%
8,O=C(CCc1ccsc1)Nc1cccnc1N1CCCC1,-6.9%
9,O=C1NCC2(CCCN(C(=O)c3ccc4c(c3)CCO4)C2)O1 (configuration not stated),-4.91%
10,Cc1cc(N2CCC(n3cc(CN4CCC[C@@H]4CO)nn3)CC2)ccn1,-8.62%
11,c1coc(-c2nnc(CN3CCCC(CN4CCCCCC4)C3)o2)c1 (configuration not stated),-1.85%
12,CC1CN(C(=O)CCc2cc(Br)cs2)CCO1 (configuration not stated),-4.33%
13,CNc1ncccc1C(=O)N1CCCC2(C1)C(=O)N(C)c1ccccc12 (configuration not stated),-7.64%
14,CC(C)(C)CCS(=O)(=O)NCCc1csc(N2CCCC2)n1,-2.83%
15,O=C(c1cc(F)cc(F)c1)N1CCC(O)(C(F)(F)F)CC1,19.9%
16,O=C(O)c1ccccc1-c1ccc(CN2CC(c3ccncn3)C2)o1,-5.44%
17,CCS(=O)(=O)N1CCc2c(cnc(-c3cccnc3)c2C(=O)O)C1,10.1%
18,c1cnc(N2CCN(Cc3nnnn3C3CC3)CC2)nc1,-16.2%
19,O=C1CC[C@]2(CC[C@@H](NC3CCOC3)CC2)N1Cc1ccccc1 (some centres not stated),-1.97%
20,Cc1nccc(C(=O)N2CCCN(Cc3cnn(C(C)C)c3)CC2)n1,-4.5%
